Source: patent US8758816B2, “Compositions comprising azelastine and methods of use thereof” (priority 2004, dated 2014)

System: patients with seasonal allergic rhinitis (SAR)
Test: MP 428 study: individual symptom severity scores (runny nose, itchy nose, sneezing, congestion; 0-3 scale)
Format: in vivo, human
Conditions: Intent-to-Treat Population
Description: A two-week, randomized, double-blind study, which evaluated the effects of the co-administration of ASTELIN® (azelastine hydrochloride (HCl)) and FLONASE® (fluticasone propionate) compared to either product alone in patients with seasonal allergic rhinitis (SAR) was conducted during the 2006 Texas mountain cedar season. After a 5-day placebo lead-in period, 151 patients with moderate-to-severe allergic rhinitis symptoms were randomized to either: (1) (49 total patients) ASTELIN® (azelastine hydrochloride (HCl)) plus placebo saline nasal spray 2 sprays per nostril, 15 minutes apart, twice daily (AM & PM); (2) (50 total patients) FLONASE® (fluticasone propionate) plus placebo saline nasal spray, 2 sprays per nostril, 15 minutes apart, once daily (AM) and two sessions of placebo saline nasal spray, 2 sprays per nostril, 15 minutes apart (PM); or (3) (52 total patients) the co-administration of ASTELIN® (azelastine hydrochloride (HCl)) 2 sprays per nostril plus FLONASE® (fluticasone propionate) 2 sprays per nostril (AM), 15 minutes apart, and ASTELIN® (azelastine hydrochloride (HCl)) 2 sprays per nostril plus placebo saline nasal spray, 15 minutes apart, (PM) for a 2-week double-blind treatment period.
The primary efficacy variable was the change from baseline in the Total Nasal Symptom Score (TNSS), which comprised sneezing, itchy nose, runny nose, and nasal congestion (individual symptoms scores were assigned a value between 0 and 3, where 0=no symptoms and 3=severe symptoms). This study was not statistically designed to assess the differences between ASTELIN® and FLONASE®.
The results of the clinical trial are summarized and presented in Appendix A hereinbelow and in FIGS. 1-6. […] FIGS. 2-5 show the mean improvement in severity score (0-3 scale) from baseline for the symptoms of runny nose, itchy nose, sneezing and congestion, respectively.

## CCC(=O)O[C@]1(C(=O)SCF)[C@H](C)C[C@H]2[C@@H]3C[C@H](F)C4=CC(=O)C=C[C@]4(C)[C@@]3(F)[C@@H](O)C[C@@]21C [Fluticasone, fluticasone propionate]
Day 2
  Change from Baseline in AM and PM Combined Nasal Symptom Score: Congestion, LS Mean: −0.59
  Change from Baseline in AM and PM Combined Nasal Symptom Score: Congestion, Mean: −0.65
  Change from Baseline in AM and PM Combined Nasal Symptom Score: Congestion, Median: −0.30
  Change from Baseline in AM and PM Combined Nasal Symptom Score: Itchy Nose, LS Mean: −0.61
  Change from Baseline in AM and PM Combined Nasal Symptom Score: Itchy Nose, Mean: −0.66
  Change from Baseline in AM and PM Combined Nasal Symptom Score: Itchy Nose, Median: −0.40
  Change from Baseline in AM and PM Combined Nasal Symptom Score: Runny Nose, LS Mean: −0.86
  Change from Baseline in AM and PM Combined Nasal Symptom Score: Runny Nose, Mean: −0.90
  Change from Baseline in AM and PM Combined Nasal Symptom Score: Runny Nose, Median: −1.00
  Change from Baseline in AM and PM Combined Nasal Symptom Score: Sneezing, LS Mean: −1.06
  Change from Baseline in AM and PM Combined Nasal Symptom Score: Sneezing, Mean: −1.03
  Change from Baseline in AM and PM Combined Nasal Symptom Score: Sneezing, Median: −1.00
  Percent Change from Baseline in AM and PM Combined Nasal Symptom Score: Congestion, LS Mean: −10.84%
  Percent Change from Baseline in AM and PM Combined Nasal Symptom Score: Congestion, Mean: −11.97%
  Percent Change from Baseline in AM and PM Combined Nasal Symptom Score: Congestion, Median: −5.66%
  Percent Change from Baseline in AM and PM Combined Nasal Symptom Score: Itchy Nose, LS Mean: −12.72%
  Percent Change from Baseline in AM and PM Combined Nasal Symptom Score: Itchy Nose, Mean: −14.27%
  Percent Change from Baseline in AM and PM Combined Nasal Symptom Score: Itchy Nose, Median: −8.39%
  Percent Change from Baseline in AM and PM Combined Nasal Symptom Score: Runny Nose, LS Mean: −12.11%
  Percent Change from Baseline in AM and PM Combined Nasal Symptom Score: Runny Nose, Mean: −12.95%
  Percent Change from Baseline in AM and PM Combined Nasal Symptom Score: Runny Nose, Median: −16.67%
  Percent Change from Baseline in AM and PM Combined Nasal Symptom Score: Sneezing, LS Mean: −22.64%
  Percent Change from Baseline in AM and PM Combined Nasal Symptom Score: Sneezing, Mean: −22.69%
  Percent Change from Baseline in AM and PM Combined Nasal Symptom Score: Sneezing, Median: −16.67%
Day 3
  Change from Baseline in AM and PM Combined Nasal Symptom Score: Congestion, LS Mean: −0.81
  Change from Baseline in AM and PM Combined Nasal Symptom Score: Congestion, Mean: −0.90
  Change from Baseline in AM and PM Combined Nasal Symptom Score: Congestion, Median: −0.67
  Change from Baseline in AM and PM Combined Nasal Symptom Score: Itchy Nose, LS Mean: −0.99
  Change from Baseline in AM and PM Combined Nasal Symptom Score: Itchy Nose, Mean: −0.97
  Change from Baseline in AM and PM Combined Nasal Symptom Score: Itchy Nose, Median: −0.67
  Change from Baseline in AM and PM Combined Nasal Symptom Score: Runny Nose, LS Mean: −0.96
  Change from Baseline in AM and PM Combined Nasal Symptom Score: Runny Nose, Mean: −1.05
  Change from Baseline in AM and PM Combined Nasal Symptom Score: Runny Nose, Median: −0.80
  Change from Baseline in AM and PM Combined Nasal Symptom Score: Sneezing, LS Mean: −1.29
  Change from Baseline in AM and PM Combined Nasal Symptom Score: Sneezing, Mean: −1.21
  Change from Baseline in AM and PM Combined Nasal Symptom Score: Sneezing, Median: −1.00
  Percent Change from Baseline in AM and PM Combined Nasal Symptom Score: Congestion, LS Mean: −15.34%
  Percent Change from Baseline in AM and PM Combined Nasal Symptom Score: Congestion, Mean: −16.63%
  Percent Change from Baseline in AM and PM Combined Nasal Symptom Score: Congestion, Median: −11.76%
  Percent Change from Baseline in AM and PM Combined Nasal Symptom Score: Itchy Nose, LS Mean: −22.88%
  Percent Change from Baseline in AM and PM Combined Nasal Symptom Score: Itchy Nose, Mean: −22.41%
  Percent Change from Baseline in AM and PM Combined Nasal Symptom Score: Itchy Nose, Median: −15.32%
  Percent Change from Baseline in AM and PM Combined Nasal Symptom Score: Runny Nose, LS Mean: −17.15%
  Percent Change from Baseline in AM and PM Combined Nasal Symptom Score: Runny Nose, Mean: −18.81%
  Percent Change from Baseline in AM and PM Combined Nasal Symptom Score: Runny Nose, Median: −13.79%
  Percent Change from Baseline in AM and PM Combined Nasal Symptom Score: Sneezing, LS Mean: −29.62%
  Percent Change from Baseline in AM and PM Combined Nasal Symptom Score: Sneezing, Mean: −28.44%
  Percent Change from Baseline in AM and PM Combined Nasal Symptom Score: Sneezing, Median: −30.09%
Day 4
  Change from Baseline in AM and PM Combined Nasal Symptom Score: Congestion, LS Mean: −1.00
  Change from Baseline in AM and PM Combined Nasal Symptom Score: Congestion, Mean: −1.06
  Change from Baseline in AM and PM Combined Nasal Symptom Score: Congestion, Median: −1.00
  Change from Baseline in AM and PM Combined Nasal Symptom Score: Itchy Nose, LS Mean: −0.98
  Change from Baseline in AM and PM Combined Nasal Symptom Score: Itchy Nose, Mean: −0.97
  Change from Baseline in AM and PM Combined Nasal Symptom Score: Itchy Nose, Median: −0.90
  Change from Baseline in AM and PM Combined Nasal Symptom Score: Runny Nose, LS Mean: −1.12
  Change from Baseline in AM and PM Combined Nasal Symptom Score: Runny Nose, Mean: −1.17
  Change from Baseline in AM and PM Combined Nasal Symptom Score: Runny Nose, Median: −1.15
  Change from Baseline in AM and PM Combined Nasal Symptom Score: Sneezing, LS Mean: −1.42
  Change from Baseline in AM and PM Combined Nasal Symptom Score: Sneezing, Mean: −1.33
  Change from Baseline in AM and PM Combined Nasal Symptom Score: Sneezing, Median: −1.10
  Percent Change from Baseline in AM and PM Combined Nasal Symptom Score: Congestion, LS Mean: −18.75%
  Percent Change from Baseline in AM and PM Combined Nasal Symptom Score: Congestion, Mean: −19.51%
  Percent Change from Baseline in AM and PM Combined Nasal Symptom Score: Congestion, Median: −16.67%
  Percent Change from Baseline in AM and PM Combined Nasal Symptom Score: Itchy Nose, LS Mean: −20.59%
  Percent Change from Baseline in AM and PM Combined Nasal Symptom Score: Itchy Nose, Mean: −20.31%
  Percent Change from Baseline in AM and PM Combined Nasal Symptom Score: Itchy Nose, Median: −16.67%
  Percent Change from Baseline in AM and PM Combined Nasal Symptom Score: Runny Nose, LS Mean: −17.17%
  Percent Change from Baseline in AM and PM Combined Nasal Symptom Score: Runny Nose, Mean: −18.21%
  Percent Change from Baseline in AM and PM Combined Nasal Symptom Score: Runny Nose, Median: −22.33%
  Percent Change from Baseline in AM and PM Combined Nasal Symptom Score: Sneezing, LS Mean: −31.80%
  Percent Change from Baseline in AM and PM Combined Nasal Symptom Score: Sneezing, Mean: −30.67%
  Percent Change from Baseline in AM and PM Combined Nasal Symptom Score: Sneezing, Median: −27.36%
Day 5
  Change from Baseline in AM and PM Combined Nasal Symptom Score: Congestion, LS Mean: −1.00
  Change from Baseline in AM and PM Combined Nasal Symptom Score: Congestion, Mean: −1.06
  Change from Baseline in AM and PM Combined Nasal Symptom Score: Congestion, Median: −0.83
  Change from Baseline in AM and PM Combined Nasal Symptom Score: Itchy Nose, LS Mean: −1.16
  Change from Baseline in AM and PM Combined Nasal Symptom Score: Itchy Nose, Mean: −1.15
  Change from Baseline in AM and PM Combined Nasal Symptom Score: Itchy Nose, Median: −1.00
  Change from Baseline in AM and PM Combined Nasal Symptom Score: Runny Nose, LS Mean: −1.42
  Change from Baseline in AM and PM Combined Nasal Symptom Score: Runny Nose, Mean: −1.43
  Change from Baseline in AM and PM Combined Nasal Symptom Score: Runny Nose, Median: −1.05
  Change from Baseline in AM and PM Combined Nasal Symptom Score: Sneezing, LS Mean: −1.61
  Change from Baseline in AM and PM Combined Nasal Symptom Score: Sneezing, Mean: −1.52
  Change from Baseline in AM and PM Combined Nasal Symptom Score: Sneezing, Median: −1.33
